For one assay, the target named is D(2) dopamine receptor (Rattus norvegicus, UniProt P61169). The assay can be described thus: Binding affinity against Dopamine receptor D2 in rat striatal membrane using [3H]spiroperidol as radioligand. The format is cell membranes, Striatum.
The target in assay [1] is T1, 5-hydroxytryptamine receptor 1A (Rattus norvegicus, UniProt P19327).
T1 sequence (P19327 whole entry): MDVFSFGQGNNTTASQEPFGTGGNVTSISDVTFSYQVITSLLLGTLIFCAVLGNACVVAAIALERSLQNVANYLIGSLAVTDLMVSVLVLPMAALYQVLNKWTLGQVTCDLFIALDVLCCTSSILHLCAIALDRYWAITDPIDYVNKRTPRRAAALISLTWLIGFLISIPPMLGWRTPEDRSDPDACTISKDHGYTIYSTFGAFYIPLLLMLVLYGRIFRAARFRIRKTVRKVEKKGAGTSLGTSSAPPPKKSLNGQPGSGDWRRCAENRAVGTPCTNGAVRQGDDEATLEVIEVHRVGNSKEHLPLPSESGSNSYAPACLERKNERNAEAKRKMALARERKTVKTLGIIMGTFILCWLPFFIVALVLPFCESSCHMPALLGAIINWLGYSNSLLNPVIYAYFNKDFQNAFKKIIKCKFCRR
The assay can be described thus: Binding affinity against 5-hydroxytryptamine 1A receptor in rat hippocampus membranes using [3H]8-OH-DPAT as radioligand. In kind it is cell membranes, Membrane.

For assay [2], the target named is T2, Adrenergic receptor alpha-1 (Rattus norvegicus, UniProt P15823+P23944+P43140).
T2 sequence (P15823 whole entry): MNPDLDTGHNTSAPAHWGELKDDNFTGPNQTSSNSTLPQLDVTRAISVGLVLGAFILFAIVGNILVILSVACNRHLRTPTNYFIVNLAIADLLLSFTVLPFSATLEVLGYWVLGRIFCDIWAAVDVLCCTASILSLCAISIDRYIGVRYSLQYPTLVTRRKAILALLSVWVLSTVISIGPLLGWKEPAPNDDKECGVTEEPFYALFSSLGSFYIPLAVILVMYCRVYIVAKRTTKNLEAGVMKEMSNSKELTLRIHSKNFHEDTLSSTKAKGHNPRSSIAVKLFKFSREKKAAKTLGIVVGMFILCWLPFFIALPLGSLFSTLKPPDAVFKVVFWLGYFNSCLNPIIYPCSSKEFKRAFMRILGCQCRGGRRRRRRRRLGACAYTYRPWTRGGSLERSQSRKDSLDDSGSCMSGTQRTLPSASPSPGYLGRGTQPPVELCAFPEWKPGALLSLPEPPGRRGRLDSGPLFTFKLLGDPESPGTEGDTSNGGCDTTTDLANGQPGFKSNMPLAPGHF
T2 sequence (P23944 whole entry): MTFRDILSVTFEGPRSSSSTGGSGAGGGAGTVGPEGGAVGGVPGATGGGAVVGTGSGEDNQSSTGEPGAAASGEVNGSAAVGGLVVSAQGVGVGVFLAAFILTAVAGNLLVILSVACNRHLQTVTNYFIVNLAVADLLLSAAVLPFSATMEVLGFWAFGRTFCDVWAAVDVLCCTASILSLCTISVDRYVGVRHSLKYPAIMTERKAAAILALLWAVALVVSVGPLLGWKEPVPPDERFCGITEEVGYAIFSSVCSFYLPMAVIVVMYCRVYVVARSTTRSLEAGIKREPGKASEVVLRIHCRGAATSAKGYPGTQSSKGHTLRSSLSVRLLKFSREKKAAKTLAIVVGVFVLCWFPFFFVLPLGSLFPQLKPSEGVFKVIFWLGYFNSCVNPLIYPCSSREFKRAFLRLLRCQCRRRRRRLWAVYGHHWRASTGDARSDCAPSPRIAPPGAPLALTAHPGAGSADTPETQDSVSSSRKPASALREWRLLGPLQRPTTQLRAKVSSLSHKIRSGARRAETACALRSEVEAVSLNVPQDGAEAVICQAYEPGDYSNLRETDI
T2 sequence (P43140 whole entry): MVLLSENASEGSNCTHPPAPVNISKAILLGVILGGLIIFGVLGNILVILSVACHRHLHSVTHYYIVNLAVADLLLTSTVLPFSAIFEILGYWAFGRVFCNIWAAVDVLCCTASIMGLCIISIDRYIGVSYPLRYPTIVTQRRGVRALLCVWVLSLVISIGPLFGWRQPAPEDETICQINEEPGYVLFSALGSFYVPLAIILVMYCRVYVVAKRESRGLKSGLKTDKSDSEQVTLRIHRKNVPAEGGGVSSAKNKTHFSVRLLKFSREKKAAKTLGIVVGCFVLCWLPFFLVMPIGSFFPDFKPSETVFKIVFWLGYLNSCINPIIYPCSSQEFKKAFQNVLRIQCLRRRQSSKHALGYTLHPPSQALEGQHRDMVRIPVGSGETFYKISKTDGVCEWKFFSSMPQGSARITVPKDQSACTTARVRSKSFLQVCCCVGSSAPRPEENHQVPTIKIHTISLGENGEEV
In words: Binding affinity against Alpha-1 adrenergic receptor in rat brain membrane using [3H]prazosin as radioligand. In kind it is cell membranes.

In assay [3] the target is T3, Adrenergic receptor alpha-2 (Rattus norvegicus, UniProt P22086+P19328+P22909).
T3 sequence (P22086 whole entry): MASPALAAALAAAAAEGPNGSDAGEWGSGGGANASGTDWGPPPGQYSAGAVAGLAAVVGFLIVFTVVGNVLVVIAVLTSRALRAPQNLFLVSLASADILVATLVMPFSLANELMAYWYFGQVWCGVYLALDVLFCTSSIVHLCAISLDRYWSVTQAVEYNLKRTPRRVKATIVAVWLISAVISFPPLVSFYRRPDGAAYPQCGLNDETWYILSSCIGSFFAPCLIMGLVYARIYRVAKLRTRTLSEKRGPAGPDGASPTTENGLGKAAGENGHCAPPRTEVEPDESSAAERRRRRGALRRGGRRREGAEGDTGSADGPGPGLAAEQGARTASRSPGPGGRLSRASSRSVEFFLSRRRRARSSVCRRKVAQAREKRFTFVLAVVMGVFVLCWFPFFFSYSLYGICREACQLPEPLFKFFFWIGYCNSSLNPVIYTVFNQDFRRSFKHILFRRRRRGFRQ
T3 sequence (P19328 whole entry): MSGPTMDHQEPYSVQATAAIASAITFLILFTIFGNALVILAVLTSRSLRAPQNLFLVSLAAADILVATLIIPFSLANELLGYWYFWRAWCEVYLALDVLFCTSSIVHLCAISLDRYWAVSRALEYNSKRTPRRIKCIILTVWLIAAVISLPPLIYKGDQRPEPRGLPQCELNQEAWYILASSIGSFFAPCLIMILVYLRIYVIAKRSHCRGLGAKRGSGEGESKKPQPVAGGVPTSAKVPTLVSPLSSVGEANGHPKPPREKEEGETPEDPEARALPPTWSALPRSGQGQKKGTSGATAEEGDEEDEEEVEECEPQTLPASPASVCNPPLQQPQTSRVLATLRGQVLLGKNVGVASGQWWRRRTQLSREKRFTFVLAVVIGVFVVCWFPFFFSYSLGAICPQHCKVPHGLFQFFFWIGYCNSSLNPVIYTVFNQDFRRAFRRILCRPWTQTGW
T3 sequence (P22909 whole entry): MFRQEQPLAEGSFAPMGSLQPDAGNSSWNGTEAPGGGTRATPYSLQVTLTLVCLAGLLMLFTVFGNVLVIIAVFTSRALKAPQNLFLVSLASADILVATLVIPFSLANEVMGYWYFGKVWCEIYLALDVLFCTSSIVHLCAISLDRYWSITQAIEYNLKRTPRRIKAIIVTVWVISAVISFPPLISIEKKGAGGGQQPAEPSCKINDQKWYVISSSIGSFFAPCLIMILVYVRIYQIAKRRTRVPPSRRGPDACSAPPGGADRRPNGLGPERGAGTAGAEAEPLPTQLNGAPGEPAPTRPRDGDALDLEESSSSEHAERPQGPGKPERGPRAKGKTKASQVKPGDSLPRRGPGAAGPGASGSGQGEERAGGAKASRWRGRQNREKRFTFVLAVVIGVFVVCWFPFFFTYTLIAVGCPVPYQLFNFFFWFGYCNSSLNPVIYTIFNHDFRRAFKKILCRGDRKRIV
The assay can be described thus: Binding affinity against Alpha-2 adrenergic receptor in rat brain membrane using [3H]yohimbine as radioligand. The format is cell membranes.

Assay [4] addresses Serotonin 2 (5-HT2) receptor (Rattus norvegicus, UniProt P30994+P08909+P14842). In words: Binding affinity against 5-hydroxytryptamine 2 receptor in rat brain using [3H]ketanserin as radioligand. In kind it is tissue-based.
In assay [5] the target is T1, 5-hydroxytryptamine receptor 1A. In words: Binding affinity against serotonin 5-hydroxytryptamine 1A receptor in rat hippocampus membrane using [3H]8-OH-DPAT as radioligand. The format is cell membranes.

18 compounds from ChEMBL document CHEMBL1129269, “1-aryl-4-[(1-tetralinyl)alkyl]piperazines: alkylamido and alkylamino derivatives. Synthesis, 5-HT1A receptor affinity, and selectivity. 3” (J Med Chem, 1996) can be followed below.

Chain of D(2) dopamine receptor (P61169 whole entry): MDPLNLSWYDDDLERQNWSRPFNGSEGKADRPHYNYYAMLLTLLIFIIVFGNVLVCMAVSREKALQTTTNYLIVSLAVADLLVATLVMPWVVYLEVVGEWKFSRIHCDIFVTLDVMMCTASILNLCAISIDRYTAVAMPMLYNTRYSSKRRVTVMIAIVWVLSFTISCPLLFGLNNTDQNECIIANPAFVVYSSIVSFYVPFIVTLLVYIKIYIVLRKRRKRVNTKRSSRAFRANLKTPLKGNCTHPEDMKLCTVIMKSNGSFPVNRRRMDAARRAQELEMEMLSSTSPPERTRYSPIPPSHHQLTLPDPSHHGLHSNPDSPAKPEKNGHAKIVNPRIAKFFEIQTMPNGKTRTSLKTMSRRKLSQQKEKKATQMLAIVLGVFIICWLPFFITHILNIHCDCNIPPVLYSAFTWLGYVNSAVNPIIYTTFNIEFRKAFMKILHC

As usually defined, the IC50 is the point on the concentration scale where inhibition reaches its midpoint. `COc1cccc2c1CCCC2NC(=O)CCN1CCN(c2ccccc2)CC1` (stereo not given): the IC50 was determined as 2970 nM on D(2) dopamine receptor; 311 nM in assay [1]; 313 nM in assay [2]; 2680 nM in assay [3]; 1200 nM in assay [4].

As to `COc1cccc2c1CCCC2C(=O)NCCN1CCN(c2ccccn2)CC1` (stereo not given), the IC50 on D(2) dopamine receptor amounted to 2440 nM; in assay [5] it was 173 nM; in assay [2], 838 nM; in assay [3], 7220 nM; in assay [4] it was 1270 nM.

On to `COc1ccccc1N1CCN(CCN(C)C2CCCc3c(OC)cccc32)CC1` (stereo not given), for which the half-maximal inhibitory concentration (IC50) was found to be 73 nM on D(2) dopamine receptor; 8.7 nM in assay [1]; 887 nM in assay [2]; 112 nM in assay [3]; 1740 nM in assay [4].

`COc1ccccc1N1CCN(CCNC(=O)C2CCCc3c(OC)cccc32)CC1` (stereo not given): the IC50 on D(2) dopamine receptor was found to be 448 nM; in assay [5], 35 nM; in assay [3] it was 1380 nM; in assay [4], 1710 nM.

As for `COc1cccc2c1CCCC2NCCN1CCN(c2ccccn2)CC1` (stereo not given), the IC50 at D(2) dopamine receptor is 1850 nM; in assay [2], 725 nM; in assay [3] it was 95 nM; in assay [4], 9140 nM.

On to `COc1cccc2c1CCCC2CNCCN1CCN(c2ccccc2)CC1` (stereo not given), for which the IC50 worked out at 1100 nM on D(2) dopamine receptor; 116 nM in assay [1]; 1150 nM in assay [2]; 1420 nM in assay [3]; 1900 nM in assay [4].

On to `COc1ccccc1N1CCN(CCCC2CCCc3c(OC)cccc32)CC1` (stereo not given), for which the half-maximal inhibitory concentration (IC50) in assay [5] is 0.77 nM; in assay [2], 6.5 nM; in assay [3] it was 17 nM; in assay [4] it was 330 nM.

As for `COc1ccccc1N1CCN(CCN(C)C(=O)C2CCCc3c(OC)cccc32)CC1` (stereo not given), the half-maximal inhibitory concentration (IC50) is 332 nM at D(2) dopamine receptor; 307 nM in assay [1]; 297 nM in assay [2]; 183 nM in assay [3]; 1070 nM in assay [4].

Turning to `COc1cccc2c1CCCC2C(=O)NCCCN1CCN(c2ccccn2)CC1` (stereo not given), the 50% inhibitory concentration (IC50) at D(2) dopamine receptor was 819 nM; in assay [1], 95 nM; in assay [2] it was 327 nM; in assay [3] it was 746 nM; in assay [4], 428 nM.

With `COc1cccc2c1CCCC2C(=O)N(C)CCCN1CCN(c2ccccc2)CC1` (stereo not given), the half-maximal inhibitory concentration (IC50) came out at 594 nM on D(2) dopamine receptor; 134 nM in assay [1]; 159 nM in assay [2]; 144 nM in assay [3]; 134 nM in assay [4].

Turning to `COc1cccc2c1CCCC2C(=O)NCCN1CCN(c2ccccc2)CC1` (stereo not given), the half-inhibitory concentration (IC50) was 4040 nM on D(2) dopamine receptor; 416 nM in assay [5]; 427 nM in assay [2]; 1850 nM in assay [3]; 1560 nM in assay [4].

As to `COc1ccccc1N1CCN(CCCNC2CCCc3c(OC)cccc32)CC1` (stereo not given), the concentration for half-maximal inhibition (IC50) was determined as 1060 nM at D(2) dopamine receptor; 10 nM in assay [1]; 881 nM in assay [2]; 458 nM in assay [3]; 3300 nM in assay [4].

Turning to `COc1cccc2c1CCCC2NCCCN1CCN(c2ccccc2)CC1` (stereo not given), the 50% inhibitory concentration (IC50) at D(2) dopamine receptor was 2160 nM; in assay [1] it was 53 nM; in assay [2], 626 nM; in assay [3], 788 nM; in assay [4] it was 2690 nM.

Take `COc1cccc2c1CCCC2C(=O)N(C)CCN1CCN(c2ccccc2)CC1` (stereo not given): the half-inhibitory concentration (IC50) on D(2) dopamine receptor worked out at 882 nM; in assay [1] it was 271 nM; in assay [2], 510 nM; in assay [3], 250 nM; in assay [4] it was 848 nM.

For the compound `COc1cccc2c1CCCC2NCCN1CCN(c2ccccc2)CC1` (stereo not given), the concentration for half-maximal inhibition (IC50) on D(2) dopamine receptor was 1200 nM; in assay [1], 92 nM; in assay [2], 790 nM; in assay [3] it was 310 nM; in assay [4], 2720 nM.

With `COc1cccc2c1CCCC2NC(=O)CCN1CCN(c2ccccn2)CC1` (stereo not given), the IC50 on D(2) dopamine receptor turned out to be 1900 nM; in assay [1], 135 nM; in assay [2] it was 534 nM; in assay [3], 1330 nM; in assay [4], 726 nM.

Consider `COc1cccc2c1CCCC2NC(=O)CN1CCN(c2ccccc2)CC1` (stereo not given), for which the half-inhibitory concentration (IC50) is more than 10000 nM on D(2) dopamine receptor, 5980 nM in assay [2], more than 10000 nM in assay [3] and more than 10000 nM in assay [4].

Consider `COc1ccccc1N1CCN(CCC(=O)NC2CCCc3c(OC)cccc32)CC1` (stereo not given), for which the IC50 came out at 761 nM at D(2) dopamine receptor, 153 nM in assay [2], 1250 nM in assay [3] and 841 nM in assay [4].
